Patent US11370798B2 (Vertex Pharmaceuticals Incorporated, priority 2012, dated 2022)

test system: HCT116 colorectal cancer cells; experiment: Cisplatin sensitization assay (96 h cell viability MTS); type: cell-based; details: compound and Cisplatin added simultaneously, Cisplatin sensitization value;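 note: Test-compound concentration that lowers the Cisplatin IC50 by a set fold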
Procedure, shortened: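 Viability read by MTS (1 h at 37° C) after 96 h co-exposure at 37° C, 5% CO2. Test compound and cisplatin were dosed simultaneously in a full concentration matrix, each 2-fold serially diluted from 10 μM final; sensitization values binned in μM.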

SMILES	Cisplatin Sensitization Assay
Nc1nn2cc(F)cnc2c1C(=O)Nc1cncc(F)c1N1CCC(C(=O)N2CCN(C3CC3)CC2)CC1 [I-G-13, 2-amino-N-(4-(4-(4-cyclopropylpiperazine-1-carbonyl)piperidin-1-yl)-5-fluoropyridin-3-yl)-6-fluoropyrazolo[1,5-a]pyrimidine-3-carboxamide]	+++ (Cisplatin sensitization value of <0.02 μM)
CS(=O)(=O)C1CCN(c2c(Cl)cncc2NC(=O)c2c(N)nn3cc(F)cnc23)C1 (stereo not drawn) [I-N-287, 2-amino-N-(5-chloro-4-(3-(methylsulfonyl)pyrrolidin-1-yl)pyridin-3-yl)-6-fluoropyrazolo[1,5-a]pyrimidine-3-carboxamide]	+++ (Cisplatin sensitization value of <0.02 μM)
CN(C)CCOc1ccncc1NC(=O)c1c(N)nn2cc(Cl)cnc12 [I-O-48, 2-amino-6-chloro-N-(4-(2-(dimethylamino)ethoxy)pyridin-3-yl)pyrazolo[1,5-a]pyrimidine-3-carboxamide]	++ (Cisplatin sensitization value>0.02 μM but <0.2 μM)
Nc1nn2cc(F)cnc2c1C(=O)Nc1cnccc1N1CCOCC1 [I-N-141, 2-amino-6-fluoro-N-(4-morpholinopyridin-3-yl)pyrazolo[1,5-a]pyrimidine-3-carboxamide]	+++ (Cisplatin sensitization value of <0.02 μM)
Nc1nn2cc(F)cnc2c1C(=O)Nc1cnccc1N1CCS(=O)(=O)CC1 [I-N-210, 2-amino-N-(4-(1,1-dioxidothiomorpholino)pyridin-3-yl)-6-fluoropyrazolo[1,5-a]pyrimidine-3-carboxamide]	+++ (Cisplatin sensitization value of <0.02 μM)
CN1CCN(S(=O)(=O)C2CCN(c3c(F)cncc3NC(=O)c3c(N)nn4cc(F)cnc34)CC2)CC1 [I-N-166, 2-amino-6-fluoro-N-(5-fluoro-4-(4-((4-methylpiperazin-1-yl)sulfonyl)piperidin-1-yl)pyridin-3-yl)pyrazolo[1,5-a]pyrimidine-3-carboxamide]	+++ (Cisplatin sensitization value of <0.02 μM)
Cc1ccncc1-c1ccncc1NC(=O)c1c(N)nn2cc(F)cnc12 [I-C-30, 2-amino-6-fluoro-N-(4-methyl-[3,4′-bipyridin]-3′-yl)pyrazolo[1,5-a]pyrimidine-3-carboxamide]	+++ (Cisplatin sensitization value of <0.02 μM)
Nc1nn2cc(F)cnc2c1C(=O)Nc1cncc(F)c1N1CCC(S(=O)(=O)N2CCC2)CC1 [I-N-169, 2-amino-N-(4-(4-(azetidin-1-ylsulfonyl)piperidin-1-yl)-5-fluoropyridin-3-yl)-6-fluoropyrazolo[1,5-a]pyrimidine-3-carboxamide]	+++ (Cisplatin sensitization value of <0.02 μM)
CN1CCN2CCN(c3ccncc3NC(=O)c3c(N)nn4cc(Cl)cnc34)CC2C1 (stereo not drawn) [I-N-61, 2-amino-6-chloro-N-(4-(8-methylhexahydro-1H-pyrazino[1,2-a]pyrazin-2(6H)-yl)pyridin-3-yl)pyrazolo[1,5-a]pyrimidine-3-carboxamide]	+++ (Cisplatin sensitization value of <0.02 μM)
Nc1nn2cc(F)cnc2c1C(=O)Nc1cnccc1N1CCC(N2CCCC2=O)CC1 [I-N-230, 2-amino-6-fluoro-N-(4-(4-(2-oxopyrrolidin-1-yl)piperidin-1-yl)pyridin-3-yl)pyrazolo[1,5-a]pyrimidine-3-carboxamide]	+++ (Cisplatin sensitization value of <0.02 μM)
Nc1nn2cc(F)cnc2c1C(=O)Nc1cnccc1N1CCN(C2CCOCC2)CC1 [I-N-11, 2-amino-6-fluoro-N-(4-(4-(tetrahydro-2H-pyran-4-yl)piperazin-1-yl)pyridin-3-yl)pyrazolo[1,5-a]pyrimidine-3-carboxamide]	++ (Cisplatin sensitization value>0.02 μM but <0.2 μM)
Nc1nn2cc(F)cnc2c1C(=O)Nc1cncc(F)c1OC1CCN(C2COC2)CC1 [I-O-91, 2-amino-6-fluoro-N-(5-fluoro-4-((1-(oxetan-3-yl)piperidin-4-yl)oxy)pyridin-3-yl)pyrazolo[1,5-a]pyrimidine-3-carboxamide]	++ (Cisplatin sensitization value>0.02 μM but <0.2 μM)
